Experimental data published in ChEMBL document CHEMBL1139907, “Further studies on hepatitis C virus NS5B RNA-dependent RNA polymerase inhibitors toward improved replicon cell activities: benzimidazole and structurally related compounds bearing the 2-morpholinophenyl moiety” (Bioorg Med Chem Lett, 2007).

How the values were obtained:
[1] = Inhibition of HCV NS5B polymerase; parameters: species or system Hepacivirus hominis
Hepatitis C virus = assay: Antiviral activity against HCV in Huh-5-2 cells by replicon assay; assay type: functional, organism-based, Hepacivirus hominis
[2] = Cytotoxicity against Huh-5-2 cells; assay type: cell-based; conditions: human
Hepacivirus hominis = assay: Ratio of EC50 of HCV to IC50 for HCV NS5B polymerase

Row | SMILES | IC50 [1] | EC50 (Hepatitis C virus) | CC50 [2] | Ratio (Hepacivirus hominis)
1 | O=C(O)c1ccc2c(c1)nc(-c1ccc(OCc3cc(Cl)ccc3N3CCOCC3)cc1F)n2C1CCCCC1 | 100 nM | 1200 nM | > 20000 nM | 12
2 | CC(=O)N1CCN(c2ccc(N3CCCC3=O)cc2COc2ccc(-c3nc4cc(C(=O)O)ccc4n3C3CCCCC3)c(F)c2)CC1 | 110 nM | 950 nM | > 20000 nM | 8.6
3 | COc1ccc(N2CCCC2=O)cc1COc1ccc(-c2nc3cc(C(=O)O)ccc3n2C2CCCCC2)c(F)c1 | 410 nM | 1400 nM | > 20000 nM | 3.4
4 | O=C(O)c1ccc2c(c1)nc(-c1ccc(OCc3cc(N4CCCC4=O)ccc3-c3ccc(Cl)cc3)cc1F)n2C1CCCCC1 | – | – | > 20000 nM | 19
5 | COCC(=O)N(C)c1ccc(N2CCOCC2)c(COc2ccc(-c3nc4cc(C(=O)O)ccc4n3C3CCCCC3)c(F)c2)c1 | 99 nM | 1200 nM | > 20000 nM | 12
6 | CN(C)C(=O)c1ccc(N2CCOCC2)c(COc2ccc(-c3nc4cc(C(=O)O)ccc4n3C3CCCCC3)c(F)c2)c1 | 68 nM | 440 nM | > 20000 nM | 6.5
7 | O=C(O)c1ccc2c(c1)nc(-c1ccc(OCc3cc(N4CCCCC4=O)ccc3N3CCOCC3)cc1F)n2C1CCCCC1 | 90 nM | 580 nM | > 20000 nM | 6.4
8 | CC(=O)Nc1ccc(N2CCOCC2)c(COc2ccc(-c3nc4cc(C(=O)O)ccc4n3C3CCCCC3)c(F)c2)c1 | 70 nM | 910 nM | > 20000 nM | 13
9 | O=C(O)c1ccc2c(c1)nc(-c1ccc(OCc3cc(N4CCCC4=O)ccc3N3CCC(C(=O)O)CC3)cc1F)n2C1CCCCC1 | 180 nM | 3500 nM | > 20000 nM | 19
10 | O=C(O)c1ccc2c(C3CCCCC3)c3n(c2c1)CCOc1cc(OCc2cc(N4CCCC4=O)ccc2N2CCOCC2)ccc1-3 | 7.2 nM | 7.6 nM | > 20000 nM | 1.1
11 | O=C(O)c1ccc2c(c1)nc(-c1ccc(OCc3cc(N4CCCC4=O)ccc3Oc3ccc(Cl)cc3)cc1F)n2C1CCCCC1 | 230 nM | 3100 nM | > 20000 nM | 13

Continued by falling IC50 [1], values first:

Row | IC50 [1] | EC50 (Hepatitis C virus) | SMILES | CC50 [2] | Ratio (Hepacivirus hominis)
12 | 1000 nM | > 30000 nM | O=C(O)c1ccc2c(c1)nc(-c1ccc(OCc3cc(N4CCCC4=O)ccc3N3CCOCC3=O)cc1F)n2C1CCCCC1 | > 20000 nM | > 30
13 | 260 nM | 1300 nM | COCCN(C)c1ccc(N2CCCC2=O)cc1COc1ccc(-c2nc3cc(C(=O)O)ccc3n2C2CCCCC2)c(F)c1 | > 20000 nM | 5
14 | 150 nM | 800 nM | O=C(O)c1ccc2c(c1)nc(-c1ccc(OCc3cc(N4CCCC4=O)ccc3N3CCCCC3)cc1F)n2C1CCCCC1 | > 20000 nM | 5.3
15 | 150 nM | 1400 nM | O=C(O)c1ccc2c(c1)nc(-c1ccc(OCc3cc(N4CCCC4=O)ccc3N3CCC(O)CC3)cc1F)n2C1CCCCC1 | > 20000 nM | 9.3
16 | 130 nM | 1100 nM | CN1CCN(c2ccc(N3CCCC3=O)cc2COc2ccc(-c3nc4cc(C(=O)O)ccc4n3C3CCCCC3)c(F)c2)CC1 | > 20000 nM | 8.5
17 | 130 nM | 1000 nM | O=C(O)c1ccc2c(c1)nc(-c1ccc(OCc3ccccc3N3CCOCC3)cc1F)n2C1CCCCC1 | > 20000 nM | 7.7
18 | 71 nM | 550 nM | O=C(O)c1ccc2c(c1)nc(-c1ccc(OCc3cc(N4CCCS4(=O)=O)ccc3N3CCOCC3)cc1F)n2C1CCCCC1 | > 20000 nM | 7.7
19 | 66 nM | 310 nM | O=C(O)c1ccc2c(c1)nc(-c1ccc(OCc3cc(N4CCCC4=O)ccc3N3CCOCC3)cc1F)n2C1CCCCC1 | > 20000 nM | 4.7
20 | 51 nM | 370 nM | CC(=O)N(C)c1ccc(N2CCOCC2)c(COc2ccc(-c3nc4cc(C(=O)O)ccc4n3C3CCCCC3)c(F)c2)c1 | > 20000 nM | 7.3
21 | 48 nM | 380 nM | CC(C)NC(=O)c1ccc(N2CCOCC2)c(COc2ccc(-c3nc4cc(C(=O)O)ccc4n3C3CCCCC3)c(F)c2)c1 | > 20000 nM | 7.9
22 | 42 nM | 270 nM | CC(=O)N(c1ccc(N2CCOCC2)c(COc2ccc(-c3nc4cc(C(=O)O)ccc4n3C3CCCCC3)c(F)c2)c1)C(C)C | > 20000 nM | 6.4
23 | 30 nM | 210 nM | O=C(O)c1ccc2c(c1)cc(-c1ccc(OCc3cc(N4CCCC4=O)ccc3N3CCOCC3)cc1)n2C1CCCCC1 | > 20000 nM | 7
24 | 19 nM | 60 nM | O=C(O)c1ccc2c(C3CCCCC3)c3n(c2c1)CCOc1cc(OCc2cc(N4CCCC4=O)ccc2-c2ccc(Cl)cc2)ccc1-3 | > 20000 nM | 3.1
25 | 7.2 nM | 52 nM | Cn1c(-c2ccc(OCc3cc(N4CCCC4=O)ccc3N3CCOCC3)cc2)c(C2CCCCC2)c2ccc(C(=O)O)cc21 | > 20000 nM | 7.2
